Test results: the supplement of paper PMC10307832

Tests used:
Assay in all cases: relative viability (nuclei count vs DMSO), 5 days (fraction); higher = more cells survive
[1] = compound: CN(C/C=C/C1=CC=C(C=C1)Cl)CC2=CC=CC=C2N(CCO)S(=O)(=O)C3=CC=C(C=C3)OC [KN-93] + CC(=O)c1c(C)c2cnc(Nc3ccc(N4CCNCC4)cn3)nc2n(C2CCCC2)c1=O [Palbociclib] (partner 0.5 µM)
How it was run: (§1)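 Relative viability divides the nuclei count in treated wells by that in vehicle wells. Lung cancer cell lines were seeded in 1536-well plates, dosed by pin tool the next day, and fixed and stained after 5 days in one step with final 0.05% Triton X-100, 1% formaldehyde and 1 ug/ml Hoechst. Dosing was a single drug or a fixed anchor-drug dose plus five library-drug doses (not always all listed) in √10 steps, and values are medians of duplicate plates imaged at 4×.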

[2] = compound: CN(C/C=C/C1=CC=C(C=C1)Cl)CC2=CC=CC=C2N(CCO)S(=O)(=O)C3=CC=C(C=C3)OC [KN-93] + CC(C)C[C@H](NC(=O)[C@H](Cc1ccccc1)NC(=O)c1cnccn1)B(O)O [Bortezomib] (partner 0.002 µM)
How it was run: as §1

[3] = compound: CN(C/C=C/C1=CC=C(C=C1)Cl)CC2=CC=CC=C2N(CCO)S(=O)(=O)C3=CC=C(C=C3)OC [KN-93] + COc1cccc2cc(-c3nc([C@H]4CC[C@H](C(=O)O)CC4)n4ncnc(N)c34)[nH]c12 [OSI-027] (partner 0.5 µM)
How it was run: as §1

[4] = compound: CN(C/C=C/C1=CC=C(C=C1)Cl)CC2=CC=CC=C2N(CCO)S(=O)(=O)C3=CC=C(C=C3)OC [KN-93] + Cc1cc(Nc2cc(N3CCN(C)CC3)nc(Sc3ccc(NC(=O)C4CC4)cc3)n2)n[nH]1 [Tozasertib] (partner 0.1 µM)
How it was run: as §1

[5] = compound: CN(C/C=C/C1=CC=C(C=C1)Cl)CC2=CC=CC=C2N(CCO)S(=O)(=O)C3=CC=C(C=C3)OC [KN-93] + Nc1nc2[nH]cc(CCc3ccc(C(=O)N[C@@H](CCC(=O)O)C(=O)O)cc3)c2c(=O)[nH]1 [Pemetrexed] (partner 0.2 µM)
How it was run: as §1

Cell Line	relative viability ([1]; first compound 0.08 µM)	relative viability ([1]; first compound 0.253 µM)	relative viability ([1]; first compound 2.53 µM)	relative viability ([1]; first compound 8 µM)	relative viability ([2]; first compound 0.08 µM)	relative viability ([2]; first compound 0.253 µM)	relative viability ([2]; first compound 2.53 µM)	relative viability ([2]; first compound 8 µM)	relative viability ([3]; first compound 0.08 µM)	relative viability ([3]; first compound 0.253 µM)	relative viability ([3]; first compound 2.53 µM)	relative viability ([3]; first compound 8 µM)	relative viability ([4]; first compound 0.08 µM)	relative viability ([4]; first compound 0.253 µM)	relative viability ([4]; first compound 2.53 µM)	relative viability ([4]; first compound 8 µM)	relative viability ([5]; first compound 0.08 µM)	relative viability ([5]; first compound 0.253 µM)	relative viability ([5]; first compound 2.53 µM)	relative viability ([5]; first compound 8 µM)
HOP-62	0.461	0.573	0.552	0.477	0.442	1.28	0.958	0.711	0.855	1.08	1.07	0.537	0.395	0.44	0.401	0.273	0.28	0.383	0.346	0.322
NCI-H358	0.14	0.136	0.138	0.131					0.74	0.653	0.831	0.421	0.1	0.105	0.089	0.103	0.166	0.182	0.169	0.157
NCI-H1944	0.368	0.328	0.327	0.243					0.403	0.376	0.383	0.31	0.269	0.221	0.257	0.218	0.599	0.598	0.545	0.57
HCC-78	0.47	0.513	0.446	0.427	0.462		0.37	0.531	0.388	0.315	0.387	0.339	0.392	0.369	0.369	0.382	0.816	1.02	0.911	0.935
NCI-H1703					0.381	0.302	0.418	0.166												
LCLC-97TM1	0.293	0.227	0.207	0.158	0.636	0.576	0.906	0.466	0.461	0.634	0.561	0.353	0.254	0.229	0.226	0.194	0.199	0.165	0.179	0.145
IA-LM					0.738	0.875	0.991	0.481												
NCI-H441		0.171	0.185	0.147		0.672	0.365	0.22	0.603	0.672	0.623	0.479	0.639	0.806	0.553	0.435		0.242	0.293	0.268
ABC-1	0.691	0.64	0.571	0.336	0.322	0.247	0.287	0.26	0.455	0.294	0.509	0.257	0.158	0.157	0.217	0.192				
NCI-H1755	0.478	0.462	0.45	0.455	0.923	1.07	0.967	0.546	0.832	0.727	0.776	0.559	0.625	0.604	0.584	0.468	0.455	0.432	0.453	0.44
